# Laboratory results from ChEMBL document CHEMBL1158266, “Cyclopentabenzofuran lignan protein synthesis inhibitors from Aglaia odorata” (J Nat Prod, 1996).
# Activity calls are given as the source filed them. The calls are words filed in the database; no cut-off is given here.
# Assays:
# [1] = system: NRK; experiment: Induction of morphological changes in rat NRK cells expressing K-ras assessed as flat morphology; type: functional, cell-based
# [2] = system: NRK; experiment: Induction of morphological changes in rat NRK cells expressing K-ras-ts proto-oncogene assessed as flat morphology; type: functional, cell-based
# [3] = system: NRK; experiment: Inhibition of protein synthesis in rat NRK cells expressing K-ras assessed as L-[4,5-3H]leucine incorporation after 1 hr; type: functional, cell-based
# [4] = system: NRK; experiment: Inhibition of DNA synthesis in rat NRK cells expressing K-ras assessed as [methyl-3H]thymidine incorporation after 1 hr; type: functional, cell-based
# [5] = system: NRK; experiment: Inhibition of RNA synthesis in rat NRK cells expressing K-ras assessed as [5-3H]uridine incorporation after 1 hr; type: functional, cell-based
# [6] = system: NRK; experiment: Decrease in cellular Ras protein level in rat NRK cells expressing K-ras at 2.5 ng/mL after 1 to 3 days by immunoblotting; type: functional, cell-based
# [7] = system: NRK; experiment: Induction of morphological changes in rat NRK cells expressing K-ras assessed as flat morphology and cytoskeletal organization at 10 to 30 ng/mL after 1 day; type: functional, cell-based
# [8] = system: NRK; experiment: Induction of morphological changes in rat NRK cells expressing K-ras assessed as flat morphology and cytoskeletal organization at 10 to 30 ng/mL after 3 days; type: functional, cell-based
# [9] = system: NRK; experiment: Growth inhibition of rat NRK cells expressing K-ras; type: functional, cell-based
# [10] = system: NIH3T3; experiment: Growth inhibition of mouse NIH/3T3 cells expressing K-ras; type: functional, cell-based
# [11] = system: NIH3T3; experiment: Growth inhibition of mouse NIH/3T3 cells expressing H-ras; type: functional, cell-based
# [12] = system: NIH3T3; experiment: Growth inhibition of mouse NIH/3T3 cells expressing N-ras; type: functional, cell-based
# [13] = system: NRK; experiment: Growth inhibition of rat NRK cells; type: cell-based
# [14] = Growth inhibition of mouse NIH/3T3 cells; type: cell-based; conditions: NIH3T3
SMILES,Activity [1],Activity [2],Activity [3],Activity [4],Activity [5],Activity [6],Activity [7],Activity [8],IC50 [9],IC50 [10],IC50 [11],IC50 [12],IC50 [13],IC50 [14]
CC[C@@]12CC(C(=O)OC)=C3Nc4cc5c(cc4[C@@]34CCN(C[C@H]3O[C@H]31)[C@@H]24)[C@@H]1[C@H](O5)[C@@H](O)[C@@]2(CC)CC(C(=O)OC)=C3Nc4c(cc(O)c(OC)c4OC)[C@@]34CCN1[C@@H]24,Active,Active,–,–,–,–,–,–,–,–,–,–,–,–
COc1c(C=O)c(O)cc2c1C(=O)c1ccccc1C2=O,Active,Active,–,–,–,–,–,–,–,–,–,–,–,–
CC[C@@]12C=CCN3CC[C@]4(C(=C(C(=O)OC)C1)Nc1cc5c(cc14)[C@H]1[C@@H](O5)[C@H](O)[C@]4(CC)CC(C(=O)OC)=C5Nc6c(cc(O)c(OC)c6OC)[C@@]56CCN1[C@H]46)[C@H]32,Active,Active,–,–,–,–,–,–,–,–,–,–,–,–
COc1ccc([C@@]23Oc4cc(OC)cc(OC)c4[C@]2(O)[C@H](O)C[C@H]3c2ccccc2)cc1 [ROCAGLAOL],–,–,Active,inactive,inactive,Active,Active,Active,5.8 ng/mL,7 ng/mL,5.3 ng/mL,7.5 ng/mL,10 ng/mL,2 ng/mL
COc1ccc([C@@]23Oc4cc(OC)cc(OC)c4[C@]2(O)C2=C(C(=O)N4CCC[C@H]4N2)[C@H]3c2ccccc2)cc1 [AGLAIASTATIN],–,–,Active,inactive,inactive,Active,Active,Active,2.8 ng/mL,5.6 ng/mL,1 ng/mL,1.8 ng/mL,2.1 ng/mL,4.1 ng/mL
COc1ccc([C@@]23Oc4cc(OC)cc(OC)c4[C@]2(O)c2nc4n(c(=O)c2[C@H]3c2ccccc2)CCC4)cc1,–,–,Active,inactive,inactive,Active,Active,Active,81 ng/mL,8.9 ng/mL,7.8 ng/mL,8 ng/mL,9.8 ng/mL,7.6 ng/mL
